Read-outs that look alike come from different tables or passages of the source.
Tests used:
[1] = molecular target: T1, MMP-3 (Homo sapiens, UniProt P08254); experiment: Primary Thiopeptilide MMP-3 Inhibition Assay; type: biochemical; settings: for inhibition at 5 µM: read-out: MMP-3 Thiopep. % inhibition; for IC50: 13 nM stromelysin, x (n) = average of n determinations
T1 construct: Truncated Prostromelysin-257 was expressed in a soluble form in E.coli; made in house; host or cells: E. coli
Experimental: Enzyme: recombinant stromelysin expressed in E.coli and purified as described above. […] The protocols for the assay of compounds as stromelysin inhibitors was the same as that used for MMP-9 except that the assay buffer was 50 mM MES, pH 6.5 containing 150 mM NaCl, 10 mM CaCl2, 0.005% Brij, and 1% DMSO.

[2] = molecular target: T2, MMP-9 (Homo sapiens, UniProt P14780); experiment: Thiopeptilide MMP-9 Inhibition Assay; type: biochemical; settings: for inhibition at 5 µM: read-out: MMP-9: Thiopep. % inhibition
T2 construct: from tissue; host or cells: human polymorphonuclear leukocytes (PMN) from whole blood (New York Blood Center), PMA-stimulated supernatant
T2 sequence (P14780 107-707 limits assumed): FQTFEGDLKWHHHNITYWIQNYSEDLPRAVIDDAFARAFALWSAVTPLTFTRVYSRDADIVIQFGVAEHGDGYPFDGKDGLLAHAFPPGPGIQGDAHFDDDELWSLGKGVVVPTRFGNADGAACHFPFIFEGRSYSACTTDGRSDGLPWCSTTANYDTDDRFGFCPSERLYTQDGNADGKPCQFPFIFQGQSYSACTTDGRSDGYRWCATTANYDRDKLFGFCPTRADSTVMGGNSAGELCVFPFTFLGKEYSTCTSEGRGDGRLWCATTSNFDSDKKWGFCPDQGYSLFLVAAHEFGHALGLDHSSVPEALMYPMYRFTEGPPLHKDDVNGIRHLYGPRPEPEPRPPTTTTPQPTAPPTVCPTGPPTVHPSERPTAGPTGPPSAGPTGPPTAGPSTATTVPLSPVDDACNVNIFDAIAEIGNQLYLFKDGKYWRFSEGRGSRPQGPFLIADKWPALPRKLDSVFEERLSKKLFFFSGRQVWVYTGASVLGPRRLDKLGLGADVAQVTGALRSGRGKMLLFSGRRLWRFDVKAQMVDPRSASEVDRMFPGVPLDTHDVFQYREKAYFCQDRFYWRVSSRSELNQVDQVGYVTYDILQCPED

[3] = pH 6.5, read-out: MMP-3 Thiopep. IC50
[4] = pH 6.5, x (n) = average of n determinations, read-out: MMP-9: Thiopep. IC50

T1 sequence (P08254 100-274 limits assumed): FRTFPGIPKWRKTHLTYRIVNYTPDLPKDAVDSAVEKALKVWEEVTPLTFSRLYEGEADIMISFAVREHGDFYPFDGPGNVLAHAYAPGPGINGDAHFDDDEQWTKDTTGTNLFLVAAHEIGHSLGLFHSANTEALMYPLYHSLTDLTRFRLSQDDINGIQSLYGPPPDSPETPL

Compound	inhibition at 5 µM [2] [%]	IC50 [1, 3] [nM]	IC50 [2, 4] [nM]	also measured
O=Cc1ccccc1-c1ccc(C(=O)CC(CCCc2ccccc2)C(=O)O)cc1 (stereo not drawn) [Example 82, [1,1'-Biphenyl]-4-butanoic acid, 2'-formyl-γ-oxo-α-(3-phenylpropyl)-]	9			inhibition at 5 µM [1]: 23%
O=C(CC(CCCc1ccccc1)C(=O)O)c1ccc(-c2ccc(O)cc2)cc1 (stereo not drawn) [Example 83, [1,1'-Biphenyl]-4-butanoic acid, 4'-hydroxy-γ-oxo-α-(3-phenylpropyl)-]		720	1400	
CCCOc1ccc(-c2ccc(C(=O)CC(CCCc3ccccc3)C(=O)O)cc2)cc1 (stereo not drawn) [Example 84, [1,1'-Biphenyl]-4-butanoic acid, γ-oxo-α-(3-phenylpropyl)-4'-propoxy-]		150	100	
CCCCCCOc1ccc(-c2ccc(C(=O)CC(CCCc3ccccc3)C(=O)O)cc2)cc1 (stereo not drawn) [Example 88, [1,1'-Biphenyl]-4-butanoic acid, 4'-(hexyloxy)γ-oxo-α-(3-phenylpropyl)-]	30	168		
CCCCOc1ccc(-c2ccc(C(=O)CC(CCCc3ccccc3)C(=O)O)cc2)cc1 (stereo not drawn) [Example 89, [1,1'-Biphenyl]-4-butanoic acid, 4'-butoxy-γ-oxo-α-(3-phenylpropyl)-]		111	480	
O=C(CC(CCCc1ccccc1)C(=O)O)c1ccc(-c2ccc(OCCCc3ccccc3)cc2)cc1 (stereo not drawn) [Example 90, [1,1'-Biphenyl]-4-butanoic acid, γ-oxo-4'-(3-phenylpropoxy)-α-(3-phenylpropyl)-]	11			inhibition at 5 µM [1]: 36%
CC(C)Oc1ccc(-c2ccc(C(=O)CC(CCCc3ccccc3)C(=O)O)cc2)cc1 (stereo not drawn) [Example 91, [1,1'-Biphenyl]-4-butanoic acid, 4'-(1-methylethoxy)-γ-oxo-α-(3-phenylpropyl)-]		174	700	
CCCCCCCOc1ccc(-c2ccc(C(=O)CC(CCCc3ccccc3)C(=O)O)cc2)cc1 (stereo not drawn) [Example 92, [1,1'-Biphenyl]-4-butanoic acid, 4'-(heptyloxy)-γ-oxo-α-(3-phenylpropyl)-]	26			inhibition at 5 µM [1]: 60%
CCC(CC(=O)c1ccc(-c2ccc(Cl)cc2)cc1)C(=O)O (stereo not drawn) [Example 117, [1,1'-Biphenyl]-4-butanoic acid, 4'-chloro-α-ethyl-γ-oxo-]		590	3800	
CCCC(CC(=O)c1ccc(-c2ccc(Cl)cc2)cc1)C(=O)O (stereo not drawn) [Example 118, [1,1'-Biphenyl]-4-butanoic acid, 4'-chloro-γ-oxo-α-propyl-]		440	2200	
C=CCC(CC(=O)c1ccc(-c2ccc(Cl)cc2)cc1)C(=O)O (stereo not drawn) [Example 119, [1,1'-Biphenyl]-4-butanoic acid, 4'-chloro-γ-oxo-α-2-propenyl-]		760	1800	
CCCCC(CC(=O)c1ccc(-c2ccc(Cl)cc2)cc1)C(=O)O (stereo not drawn) [Example 120, [1,1'-Biphenyl]-4-butanoic acid, α-butyl-4'-chloro-γ-oxo-]	60	380		
C#CCC(CC(=O)c1ccc(-c2ccc(Cl)cc2)cc1)C(=O)O (stereo not drawn) [Example 121, [1,1'-Biphenyl]-4-butanoic acid, 4'-chloro-γ-oxo-α-2-propynyl-]	45	1000		
O=C(CC(CCc1ccccc1)C(=O)O)c1ccc(-c2ccc([N+](=O)[O-])cc2)cc1 (stereo not drawn) [Example 124, [1,1'-Biphenyl]-4-butanoic acid, 4'-nitro-γ-oxo-α-(2-phenylethyl)-]	28	180		
N#Cc1ccc(-c2ccc(C(=O)CC(CCc3ccccc3)C(=O)O)cc2)cc1 (stereo not drawn) [Example 125, [1,1'-Biphenyl]-4-butanoic acid, 4'-cyano-γ-oxo-α-(2-phenylethyl)-]		105	1800	
O=C(CC(CCc1ccccc1)C(=O)O)c1ccc(-c2ccc(Cl)cc2)cc1 (stereo not drawn) [Example 132, [1,1'-Biphenyl]-4-butanoic acid, 4'-chloro-γ-oxo-α-(2-phenylethyl)-]		112	2600	
C[Si](C)(C)CC(CC(=O)c1ccc(-c2ccc(Cl)cc2)cc1)C(=O)O (stereo not drawn) [Example 133, [1,1'-Biphenyl]-4-butanoic acid, 4'-chloro-γ-oxo-α-[(trimethylsilyl)methyl]-]				IC50 ([1]; MMP-3 Thiopep. IC50, pH 6.5): 640 nM; IC50 [2]: 10000 nM
Nc1ccc(-c2ccc(C(=O)CC(CCc3ccccc3)C(=O)O)cc2)cc1 (stereo not drawn) [Example 136, [1,1'-Biphenyl]-4-butanoic acid, 4'-amino-γ-oxo-α-(2-phenylethyl)-]	50	1600		
O=C(C[C@H](CCCc1ccccc1)C(=O)O)c1ccc(-c2ccc(Br)cc2)cc1 [Example 178, [1,1'-Biphenyl]-4-butanoic acid, 4'-bromo-γ-oxo-α-(3-phenylpropyl)-, (S)-]		150	240	

Compound	inhibition at 5 µM [2] [%]	IC50 [1, 3] [nM]	IC50 [2, 4] [nM]	also measured
O=C(CC(CCCCc1ccccc1)C(=O)O)c1ccc(-c2ccc(Cl)cc2)cc1 (stereo not drawn) [Example 179, [1,1'-Biphenyl]-4-butanoic acid, 4'-chloro-γ-oxo-α-(4-phenylbutyl)-]		160	200	
O=C(CC(CCCCCc1ccccc1)C(=O)O)c1ccc(-c2ccc(Cl)cc2)cc1 (stereo not drawn) [Example 180, [1,1'-Biphenyl]-4-butanoic acid, 4'-chloro-γ-oxo-α-(5-phenylpentyl)-]		270	360	
O=C(CC(CCCCCCc1ccccc1)C(=O)O)c1ccc(-c2ccc(Cl)cc2)cc1 (stereo not drawn) [Example 181, [1,1'-Biphenyl]-4-butanoic acid, 4'-chloro-γ-oxo-α-(6-phenylhexyl)-]		330	290	
O=C(CC(Cc1ccc(-c2ccccc2)cc1)C(=O)O)c1ccc(-c2ccc(Cl)cc2)cc1 (stereo not drawn) [Example 182, [1,1'-Biphenyl]-4-butanoic acid, α-([1,1'-biphenyl]-4-ylmethyl)-4'-chloro-γ-oxo-]	17			inhibition at 5 µM [1]: 7%
O=C(CC(C/C=C/c1ccccc1)C(=O)O)c1ccc(-c2ccc(Cl)cc2)cc1 (stereo not drawn) [Example 183, [1,1'-Biphenyl]-4-butanoic acid, 4'-chloro-γ-oxo-α-(3-phenyl-2-propenyl)-, (E)-]		270	710	
Cc1ccc(CCCC(CC(=O)c2ccc(-c3ccc(Cl)cc3)cc2)C(=O)O)cc1 (stereo not drawn) [Example 184, [1,1'-Biphenyl]-4-butanoic acid, 4'-chloro-α[3-(4-methylphenyl)propyl]-γ-oxo-]	41	280		
O=C(CC(CCCc1ccc(Cl)cc1)C(=O)O)c1ccc(-c2ccc(Cl)cc2)cc1 (stereo not drawn) [Example 185, [1,1'-Biphenyl]-4-butanoic acid, 4'-chloro-α[3-(4-chlorophenyl)propyl]-γ-oxo-]	31	220		
COc1ccc(CCCC(CC(=O)c2ccc(-c3ccc(Cl)cc3)cc2)C(=O)O)cc1 (stereo not drawn) [Example 186, [1,1'-Biphenyl]-4-butanoic acid, 4'-chloro-α[3-(4-methoxyphenyl)propyl]-γ-oxo-]		170	383	
COc1ccc(CCC(CC(=O)c2ccc(-c3ccc(Cl)cc3)cc2)C(=O)O)cc1 (stereo not drawn) [Example 187, [1,1'-Biphenyl]-4-butanoic acid, 4'-chloro-α-[2-(4-methoxyphenyl)ethyl]-γ-oxo-]		757	1500	
COc1cccc(CCC(CC(=O)c2ccc(-c3ccc(Cl)cc3)cc2)C(=O)O)c1 (stereo not drawn) [Example 188, [1,1'-Biphenyl]-4-butanoic acid, 4'-chloro-α-[2-(3-methoxyphenyl)ethyl]-γ-oxo-]		151	1300	
O=C(CC(CC#Cc1ccccc1)C(=O)O)c1ccc(-c2ccc(Cl)cc2)cc1 (stereo not drawn) [Example 189, [1,1'-Biphenyl]-4-butanoic acid, 4'-chloro-γ-oxo-α-(3-phenyl-2-propynyl)-]		530	600	
O=C(CC(CCOCc1ccccc1)C(=O)O)c1ccc(-c2ccc(Cl)cc2)cc1 (stereo not drawn) [Example 190, [1,1'-Biphenyl]-4-butanoic acid, 4'-chloro-γ-oxo-α-[2-(phenylmethoxy)ethyl]-]		227	215	
COCCOCC(CC(=O)c1ccc(-c2ccc(Cl)cc2)cc1)C(=O)O (centres unmarked) [Example 191, [1,1'-Biphenyl]-4-butanoic acid, 4'-chloro-=-[(2-methoxyethoxy)methyl]-γ-oxo-]	62	330		
O=C(CC(COCc1ccccc1)C(=O)O)c1ccc(-c2ccc(Cl)cc2)cc1 (stereo not drawn) [Example 192, [1,1'-Biphenyl]-4-butanoic acid, 4'-chloro-γ-oxo-α-[(phenylmethoxy)methyl]-]		140	510	
O=C(CC(CSc1cccs1)C(=O)O)c1ccc(-c2ccc(Cl)cc2)cc1 (stereo not drawn) [Example 199, [1,1'-Biphenyl]-4-butanoic acid, 4'-chloro-γ-oxo-α-[(2-thienylthio)methyl]-]		170	200	
CC(=O)SCC(CC(=O)c1ccc(-c2ccc(Cl)cc2)cc1)C(=O)O (stereo not drawn) [Example 200, [1,1'-Biphenyl]-4-butanoic acid, α-[(acetylthio)methyl]-4'-chloro-γ-oxo-]		640	2300	
COc1ccc(CSCC(CC(=O)c2ccc(-c3ccc(Cl)cc3)cc2)C(=O)O)cc1 (stereo not drawn) [Example 201, [1,1'-Biphenyl]-4-butanoic acid, 4'-chloro-α-[[[(4-methoxyphenyl)methyl]thio]methyl]-γ-oxo-]		340	800	
O=C(CC(CSC(=O)c1ccccc1)C(=O)O)c1ccc(-c2ccc(Cl)cc2)cc1 (stereo not drawn) [Example 202, [1,1'-Biphenyl]-4-butanoic acid, α-[(benzoylthio)methyl]-4'-chloro-γ-oxo-]		250	500	

From US5789434A, “Derivatives of substituted 4-biarylbutyric acid as matrix metalloprotease inhibitors” (priority 1995, dated 1998)
